Measured values published in publication PMC6942202 (Bioorganic & medicinal chemistry letters, 2019).

Key:
NgGCYH-IB [1] = target: T1, NgGCYH-IB (Neisseria gonorrhoeae, UniProt Q5F9K6); assay: Inhibition of NgGCYH-IB enzyme activity; type: biochemical, N. gonorrhoeae; details: in words
HsGCYH-IA = target: T2, HsGCYH-IA (Homo sapiens, UniProt P30793); assay: Steady-state kinetic analysis of HsGCYH-IA; type: biochemical, H. sapiens; details: read-out: KM of HsGCYH-IA for GTP; fluorescence assay, GTP as substrate
T2 sequence (P30793 43-250 limits assumed): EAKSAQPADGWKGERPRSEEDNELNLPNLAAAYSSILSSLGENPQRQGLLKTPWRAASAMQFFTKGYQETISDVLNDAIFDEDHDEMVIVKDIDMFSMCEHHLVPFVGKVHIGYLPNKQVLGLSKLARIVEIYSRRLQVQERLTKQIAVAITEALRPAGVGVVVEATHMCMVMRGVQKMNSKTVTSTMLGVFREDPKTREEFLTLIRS

NgGCYH-IB [2] = target: T1, NgGCYH-IB; details: read-out: KM of NgGCYH-IB for GTP; cited from earlier work

T1 sequence (Q5F9K6 whole entry): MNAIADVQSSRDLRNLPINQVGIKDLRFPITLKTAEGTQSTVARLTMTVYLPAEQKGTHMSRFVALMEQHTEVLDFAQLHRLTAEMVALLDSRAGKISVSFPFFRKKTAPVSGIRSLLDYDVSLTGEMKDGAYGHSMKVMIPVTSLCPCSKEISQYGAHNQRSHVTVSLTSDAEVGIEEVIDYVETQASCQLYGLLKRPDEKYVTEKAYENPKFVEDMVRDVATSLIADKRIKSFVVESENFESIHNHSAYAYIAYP

Row | SMILES | Selectivity between HsGCYH-IA and NgGCYH-IB from IC50 values (NgGCYH-IB [1]) | Km (HsGCYH-IA) [µM] | Km (NgGCYH-IB [2]) [µM]
1 | Nc1nc(OC[C@H](O)CO)c2[nH]c(=O)n([C@@H]3O[C@H](CO)[C@@H](O)[C@H]3O)c2n1 [G3] | three-fold more potent against NgGCYH-IB |  | 
2 | Nc1nc(OCCO)c2[nH]c(=O)n([C@@H]3O[C@H](CO)[C@@H](O)[C@H]3O)c2n1 [G1] | modest selectivity for HsGCYH-IA |  | 
3 | Nc1nc2c(ncn2[C@@H]2O[C@H](COP(=O)(O)OP(=O)(O)OP(=O)(O)O)[C@@H](O)[C@H]2O)c(=O)[nH]1 [GTP] |  | 867 ± 57 | 9
